≈ marks a conversion by molar mass, not a printed value. Where “and” joins values, the source holds several entries; their conditions need not be identical. Equal values may be shown once. Read-outs that look alike come from different tables or passages of the source.
Columns and labels:
KB (nasopharynx cancer) = assay: Cytotoxicity test with sulphorhodamine B, 72 h, KB line; details: read-out: Cytotoxic activity, IC50 KB (nasopharynx cancer)
Experimental: (§1) Cytotoxic activity tests were performed using the following cancer cell lines: MCF-7 (breast cancer), HeLa (cervical cancer) A549 (lung cancer) and KB (nasopharynx cancer) obtained from ECACC (European Collection of Cell Cultures).
(§2) Cytotoxicity tests were carried out using a standard procedure with sulphorhodamine B. They involved incubation of the cancer cell lines in the logarithmic growth phase for 72 hours with the compound tested and, subsequently, spectrophotometric determination of the degree of cell growth inhibition using adsorption of a dye (sulphorhodamine B) which binds cellular proteins.
(§3) Cells of the cell line tested in the logarithmic growth phase were seeded onto 24-well plates in a quantity of 20,000 cells/2 mL of the growth medium per well and, subsequently, incubated in an incubator at 37° C., in the 5% CO2 atmosphere for 24 hours.
(§4) Solutions of the test compounds were prepared in DMSO in the following concentration range: 0.05; 0.1; 0.5; 1; 5; 10; 50; 100; 500 μM.
(§5) The cells of the lines tested were treated with the solutions of the test compounds in a laminar-flow chamber which ensured sterile working conditions according to the following procedure: the first three wells were used as a control: they contained 20 μL of DMSO only; successive solutions of the test compound were added to subsequent wells (20 μL), starting with the lowest concentration (three wells for each concentration level). Subsequently, the plates were placed in an incubator for 72 hours.
(§6) After the end of incubation, the adhered cells were fixed by adding 500 μL of cold (4° C.) 50% trichloroacetic acid (TCA) and incubated at 4° C. for 1 hour. Subsequently, each well was rinsed with sterile water and dried. The operation was repeated five times. The fixed cells were stained for 30 minutes by adding 500 μL of 0.4% of a dye solution (sulphorhodamine B) dissolved in 1% acetic acid. Any unbound dye was removed by decanting it from the plate, and the cells were washed 4 times with 1% acetic acid. Subsequently, the plates were dried in air for approx. 5 minutes. Any unbound dye was dissolved by adding 1500 μL of 10 mM Tris-base buffer (trishydroxymethylaminomethane) to each well and shaken using an orbital shaker for 5 minutes. Subsequently, 200 μL of solution from each well was transferred to each of two wells on a new 96-well plate and absorption of the solutions was determined spectrophotometrically at a wavelength of 490-530 nm using a plate reader. Percentage inhibition of cell growth by the test compound was calculated assuming the absorption of the control solution as 100%.
(§7) Cytotoxicity tests for the other compounds and cell lines were performed following an identical procedure.
(§8) Depending on the type of the cell line, the following growth media were used: • the MCF-7 line was grown in Dulbecco's Modified Eagle's Medium (DME) from Sigma (cat. no. D5796) • the HeLa, A549 and KB lines were grown in RPMI-1640 Medium from Sigma (cat. no. R8758).
(§9) IC50 values, being concentration of a compound needed to obtain 50% inhibition of cell growth, were determined for all the derivatives tested.
(§10) To enable comparison, identical tests were performed using known cytotoxic agents: 5-fluoro-2′-deoxyuridine, 5-fluorouracil and 5′-azido-2′,5′-dideoxy-5-fluorouridine.
(§11) The values are average results of three independent determinations.

A549 (lung cancer) = assay: Cytotoxicity test with sulphorhodamine B, 72 h, A549 line; details: Homo sapiens
Experimental: as §1, §2, §3, §4, §5, §6, §7, §8, §9, §10, §11

[1] = test system: MCF-7, HeLa, A549 and KB cancer cell lines; assay: Cytotoxic activity tests, overall statement over the four cancer cell lines; details: in words
Experimental: as §1, §2, §9, §10

MCF-7 (breast cancer) = assay: Cytotoxicity test with sulphorhodamine B, 72 h, MCF-7 line; details: for IC50: Homo sapiens; for higher activity than 5AddFU, breast cancer cells: relative to 5AddFU; for higher activity than 5FU, breast cancer cells: relative to 5FU; for higher activity than 5FdU, breast cancer cells: relative to 5FdU
Experimental: as §1, §2, §3, §4, §5, §6, §7, §8, §9, §10, §11

HeLa (cervical cancer) = assay: Cytotoxicity test with sulphorhodamine B, 72 h, HeLa line; details: for IC50: Homo sapiens, HeLa; for activity compared to 5FU, cervical cancer cells: relative to 5FU
Experimental: as §1, §2, §3, §4, §5, §6, §7, §8, §9, §10, §11

[2] = test system: mouse tumour cells (S-180 line); details: at concentrations as high as 400 μM; cited from earlier work
[3] = A549, 72 h, read-out: Cytotoxic activity, IC50 A549 (lung cancer)
[4] = A549, read-out: Cytotoxic activity class, A549 (lung cancer)
[5] = MCF7, 72 h, read-out: Cytotoxic activity, IC50 MCF-7 line (breast cancer)
[6] = MCF7, read-out: Cytotoxic activity class, MCF-7 line (breast cancer)
[7] = 72 h, read-out: Cytotoxic activity, IC50 HeLa (cervical cancer)
[8] = read-out: Cytotoxic activity class, HeLa (cervical cancer)

| SMILES | IC50 (KB (nasopharynx cancer)) | IC50 (A549 (lung cancer); [3]) | IC50 (A549 (lung cancer); [4]) [mg/L] | Cytotoxic activity, overall verbal grade [1] | Cytotoxic activity, overall verbal grade ([1]; listed as 5FdU) | IC50 (MCF-7 (breast cancer); [5]) | IC50 (MCF-7 (breast cancer); [6]) [mg/L] | IC50 (HeLa (cervical cancer); [7]) | IC50 (HeLa (cervical cancer); [8]) [mg/L] | Cytotoxic activity, overall verbal grade ([1]; listed as 5FU) | Cytotoxic activity, overall verbal grade ([1]; listed as 5AddFU) | cell growth inhibition [2] [%] | higher activity than 5AddFU, breast cancer cells (MCF-7 (breast cancer)) [fold] | higher activity than 5FU, breast cancer cells (MCF-7 (breast cancer)) [fold] | higher activity than 5FdU, breast cancer cells (MCF-7 (breast cancer)) [fold] | activity compared to 5FU, cervical cancer cells (HeLa (cervical cancer)) |
| --- | --- | --- | --- | --- | --- | --- | --- | --- | --- | --- | --- | --- | --- | --- | --- | --- |
| O=c1[nH]c(=O)n([C@H]2C[C@H](O)[C@@H](CO)O2)cc1F [5-fluoro-2′-deoxyuridine, reference compound] | 3.37 µg/mL and 13.7 µM | 3.3 µg/mL and 13.4 µM | < 4 | medium-activity | Medium cytotoxic activity | 2.81 µg/mL and 11.4 µM | < 4 | 3.2 µg/mL and 13 µM | < 4 | – | – | – | – | – | – | – |
| O=c1[nH]cc(F)c(=O)[nH]1 [5-fluorouracil, reference compound] | 2.86 µg/mL and 22 µM | 2.78 µg/mL and 21.4 µM | < 4 | medium-activity | – | 2.37 µg/mL and 18.2 µM | < 4 | 2.73 µg/mL and 21 µM | < 4 | Medium cytotoxic activity | – | – | – | – | – | – |
| [N-]=[N+]=NC[C@H]1O[C@@H](n2cc(F)c(O)nc2=O)C[C@@H]1O [5′-azido-2′,5′-dideoxy-5-fluorouridine, reference compound] | 7 µg/mL and 25.8 µM | 7 µg/mL and 25.8 µM | 4 to 30 (≈ 14.7 to 111 µM) | – | – | 7.4 µg/mL and 27.3 µM | 4 to 30 (≈ 14.7 to 111 µM) | 7.8 µg/mL and 28.8 µM | 4 to 30 (≈ 14.7 to 111 µM) | – | Medium cytotoxic activity | 100 | – | – | – | – |
| O=c1[nH]c(=O)n(C2CC(O)C(Cn3cc(C4C[N@@]5CCC4C[C@H]5[C@H](O)c4ccnc5ccccc45)nn3)O2)cc1F (stereo partly shown) [CD5AFU, 5-Fluoro-1-(4-hydroxy-5-{4-[6-(hydroxy-quinolin-4-yl-methyl)-1-aza-bicyclo[2.2.2]oct-3-yl]-[1,2,3]triazol-1-ylmethyl}-tetrahydrofuran-2-yl)-1H-pyrimidine-2,4-dione] | 15 µg/mL and 26.6 µM | 15.2 µg/mL and 27 µM | 4 to 30 (≈ 7.1 to 53.2 µM) | – | – | 11.4 µg/mL and 20.2 µM | 4 to 30 (≈ 7.1 to 53.2 µM) | 13 µg/mL and 23.1 µM | 4 to 30 (≈ 7.1 to 53.2 µM) | – | – | – | – | – | – | – |
| O=c1[nH]c(=O)n(C2CC(O)C(Cn3cc(C4CN5CCC4C[C@@H]5[C@@H](O)c4ccnc5ccccc45)nn3)O2)cc1F (stereo partly shown) [CN5AFU, 5-Fluoro-1-(4-hydroxy-5-{4-[6-(hydroxy-quinolin-4-yl-methyl)-1-aza-bicyclo[2.2.2]oct-3-yl]-[1,2,3]triazol-1-ylmethyl}-tetrahydrofuran-2-yl)-1H-pyrimidine-2,4-dione] | 2.9 µg/mL and 5.15 µM | 3.1 µg/mL and 5.5 µM | < 4 | – | – | 2.8 µg/mL and 4.97 µM | < 4 | 3.1 µg/mL and 5.5 µM | < 4 | – | – | – | 3 | 1.4 | 1.6 | comparable activity |
| C=CC1C[N@@]2CCC1C[C@H]2[C@H](OCc1cn(CC2OC(n3cc(F)c(=O)[nH]c3=O)CC2O)nn1)c1ccnc2ccccc12 (stereo partly shown) [PCD5AFU, 5-Fluoro-1-(4-hydroxy-5-{4-[quinolin-4-yl-(5-vinyl-1-aza-bicyclo[2.2.2]oct-2-yl)-methoxymethyl]-[1,2,3]triazol-1-ylmethyl}-tetrahydrofuran-2-yl)-1H-pyrimidine-2,4-dione] | 17.5 µg/mL and 29 µM | 17.8 µg/mL and 29.5 µM | 4 to 30 (≈ 6.63 to 49.7 µM) | – | – | 11.8 µg/mL and 19.6 µM | 4 to 30 (≈ 6.63 to 49.7 µM) | 18.8 µg/mL and 29.8 µM | 4 to 30 (≈ 6.63 to 49.7 µM) | – | – | – | – | – | – | – |
| C=CC1C[N@@]2CCC1C[C@@H]2[C@@H](OCc1cn(CC2OC(n3cc(F)c(=O)[nH]c3=O)CC2O)nn1)c1ccnc2ccccc12 (stereo partly shown) [PCN5AFU, 5-Fluoro-1-(4-hydroxy-5-{4-[quinolin-4-yl-(5-vinyl-1-aza-bicyclo[2.2.2]oct-2-yl)-methoxymethyl]-[1,2,3]triazol-1-ylmethyl}-tetrahydrofuran-2-yl)-1H-pyrimidine-2,4-dione] | 2.4 µg/mL and 3.98 µM | 2.7 µg/mL and 4.47 µM | < 4 | – | – | 2.4 µg/mL and 3.98 µM | < 4 | 2.7 µg/mL and 4.47 µM | < 4 | – | – | – | 3 | 1.4 | 1.6 | comparable activity |
| C=CC1C[N@@]2CCC1C[C@@H]2[C@@H](OCc1cn(CC2OC(n3cc(F)c(=O)[nH]c3=O)CC2O)nn1)c1ccnc2ccc(OC)cc12 (stereo partly shown) [PQD5AFU, 5-Fluoro-1-(4-hydroxy-5-{4-[(6-methoxy-quinolin-4-yl)-(5-vinyl-1-aza-bicyclo[2.2.2]oct-2-yl)-methoxymethyl]-[1,2,3]triazol-1-ylmethyl}-tetrahydrofuran-2-yl)-1H-pyrimidine-2,4-dione] | 19.5 µg/mL and 30.8 µM | 19.7 µg/mL and 31.1 µM | 4 to 30 (≈ 6.31 to 47.3 µM) | – | – | 16 µg/mL and 25.2 µM | 4 to 30 (≈ 6.31 to 47.3 µM) | 19.1 µg/mL and 30.1 µM | 4 to 30 (≈ 6.31 to 47.3 µM) | – | – | – | – | – | – | – |
| C=CC1C[N@@]2CCC1C[C@H]2[C@H](OCc1cn(CC2OC(n3cc(F)c(=O)[nH]c3=O)CC2O)nn1)c1ccnc2ccc(OC)cc12 (stereo partly shown) [PQN5AFU, 5-Fluoro-1-(4-hydroxy-5-{4-[(6-methoxy-quinolin-4-yl)-(5-vinyl-1-aza-bicyclo[2.2.2]oct-2-yl)-methoxymethyl]-[1,2,3]triazol-1-ylmethyl}-tetrahydrofuran-2-yl)-1H-pyrimidine-2,4-dione] | 31 µg/mL and 48.9 µM | 29.4 µg/mL and 46.4 µM | 4 to 30 (≈ 6.31 to 47.3 µM) | – | – | 27 µg/mL and 42.6 µM | 4 to 30 (≈ 6.31 to 47.3 µM) | 29 µg/mL and 45.8 µM | 4 to 30 (≈ 6.31 to 47.3 µM) | – | – | – | – | – | – | – |
| COc1ccc2nccc([C@H](O)[C@H]3CC4CCN3CC4c3cn(CC4OC(n5cc(F)c(=O)[nH]c5=O)CC4O)nn3)c2c1 (stereo partly shown) [QD5AFU, 5-Fluoro-1-[4-hydroxy-5-(4-{6-[hydroxy-(6-methoxy-quinolin-4-yl)-methyl]-1-aza-bicyclo[2.2.2]oct-3-yl}-[1,2,3]triazol-1-ylmethyl)-tetrahydrofuran-2-yl]-1H-pyrimidine-2,4-dione] | 8.9 µg/mL and 15 µM | 8 µg/mL and 13.5 µM | 4 to 30 (≈ 6.74 to 50.5 µM) | – | – | 6.1 µg/mL and 10.3 µM | 4 to 30 (≈ 6.74 to 50.5 µM) | 7.3 µg/mL and 12.3 µM | 4 to 30 (≈ 6.74 to 50.5 µM) | – | – | – | – | – | – | – |
| COc1ccc2nccc([C@@H](O)[C@@H]3CC4CC[N@]3CC4c3cn(CC4OC(n5cc(F)c(=O)[nH]c5=O)CC4O)nn3)c2c1 (stereo partly shown) [QN5AFU, 5-Fluoro-1-[4-hydroxy-5-(4-{6-[hydroxy-(6-methoxy-quinolin-4-yl)-methyl]-1-aza-bicyclo[2.2.2]oct-3-yl}-[1,2,3]triazol-1-ylmethyl)-tetrahydrofuran-2-yl]-1H-pyrimidine-2,4-dione] | 12.6 µg/mL and 21.2 µM | 16 µg/mL and 26.9 µM | 4 to 30 (≈ 6.74 to 50.5 µM) | – | – | 12 µg/mL and 20.2 µM | 4 to 30 (≈ 6.74 to 50.5 µM) | 12 µg/mL and 20.2 µM | 4 to 30 (≈ 6.74 to 50.5 µM) | – | – | – | – | – | – | – |

— patent US9605017B2, “2′, 5′-dideoxy-5-fluorouridine derivatives having cytotoxic activity, a process for the manufacture thereof and application thereof” (ADAM MICKIEWICZ UNIVERSITY, priority 2014, dated 2017)
